From patent publication US20250066303A1, “ARYL TETRAHYDROPYRIDINE DERIVATIVE OR SALT THEREOF, PEST CONTROL AGENT CONTAINING SAME, AND METHOD FOR USE THEREOF” (NIHON NOHYAKU CO., LTD., priority 2021, published 2025)

Assays:
Plutella xylostella = assay: Insecticidal test against Plutella xylostella; conditions: 500 ppm drug solution, Chinese cabbage seedlings with eggs immersed about 30 sec, six days after immersion, 25° C.
From the text: Insecticidal Test Against Plutella xylostella
Six days after the immersion in the drug solution, the number of surviving insects was examined. […] In triplicate using 10 per plot.

Laodelphax striatellus = assay: Insecticidal test against Laodelphax striatellus; conditions: 500 ppm drug solution, rice seedlings immersed 30 seconds, three-instar insects, eight days after inoculation
[1] = system: Frankliniella occidentalis; assay: Insecticidal test against Frankliniella occidentalis; conditions: 500 ppm drug solution sprayed on hatched larvae on Phaseolus vulgaris leaf pieces, four days after treatment
From the text: Insecticidal Test Against Frankliniella occidentalis
Female adults of Frankliniella occidentalis were inoculated onto Phaseolus vulgaris leaf pieces, and after allowing them to lay eggs for one day, the female adults were removed. […] Four days after the treatment, the number of surviving larvae of this species larvae was examined. […] In duplicate.

Dirofilaria immitis = assay: Influence evaluation test on the growth of Dirofilaria immitis; conditions: 168 h, read-out: development inhibition rate from the L3 stage larva to the L4-stage larva

CN1C(=O)C(C(=O)Nc2ccc(Cl)cc2)=C(O)CC1c1ccc(C(F)(F)F)cc1 (centres unmarked) [1-4]
corrected mortality, rating of assessment (Plutella xylostella): D or higher
corrected mortality, rating of assessment (Laodelphax striatellus): D or higher

O=C(Nc1ccc(F)cc1)C1=C(O)CC(c2ccc(C(F)(F)F)cc2)N(Cc2ccccc2)C1=O (centres unmarked) [1-5]
corrected mortality, rating of assessment (Plutella xylostella): D or higher
corrected mortality, rating of assessment [1]: D or higher

CN1C(=O)C(C(=S)Nc2ccc(F)cc2)=C(O)CC1c1ccc(C(F)(F)F)cc1 (centres unmarked) [1-8]
corrected mortality, rating of assessment (Plutella xylostella): D or higher
corrected mortality, rating of assessment [1]: D or higher

CN1C(=O)C(C(=O)Nc2ccc(F)cn2)=C(O)CC1c1ccc(C(F)(F)F)cc1 (centres unmarked) [1-10]
corrected mortality, rating of assessment (Plutella xylostella): D or higher

CN1C(=O)C(C(=S)Nc2ccc(F)cn2)=C(O)CC1c1ccc(C(F)(F)F)cc1 (centres unmarked) [1-11]
corrected mortality, rating of assessment (Plutella xylostella): D or higher

CN1C(=O)C(C(=O)Nc2ccc(F)cc2)=C(O)CC1c1ccc(C(F)(F)F)nc1 (centres unmarked) [1-12]
corrected mortality, rating of assessment (Plutella xylostella): D or higher
corrected mortality, rating of assessment (Laodelphax striatellus): D or higher

CN1C(=O)C(C(=O)Nc2ccc(F)cn2)=C(O)CC1c1ccc(C(F)(F)F)nc1 (centres unmarked) [1-13]
corrected mortality, rating of assessment (Plutella xylostella): D or higher
corrected mortality, rating of assessment (Laodelphax striatellus): D or higher

CN1C(=O)C(C(=O)Nc2ccc(F)nc2)=C(O)CC1c1ccc(C(F)(F)F)cc1 (centres unmarked) [1-14]
corrected mortality, rating of assessment (Plutella xylostella): D or higher
corrected mortality, rating of assessment [1]: D or higher
corrected mortality, rating of assessment (Laodelphax striatellus): D or higher

CN1C(=O)C(C(=O)Nc2ncc(F)cn2)=C(O)CC1c1ccc(C(F)(F)F)cc1 (centres unmarked) [1-15]
corrected mortality, rating of assessment (Plutella xylostella): D or higher

C#CCNC(=O)C1=C(O)CC(c2ccc(C(F)(F)F)cc2)N(C)C1=O (centres unmarked) [1-27]
corrected mortality, rating of assessment (Plutella xylostella): D or higher

CCCN1C(=O)C(C(=O)Nc2ccc(F)cn2)=C(O)CC1c1ccc(C(F)(F)F)nc1 (centres unmarked) [1-31]
corrected mortality, rating of assessment (Plutella xylostella): D or higher
corrected mortality, rating of assessment [1]: D or higher
corrected mortality, rating of assessment (Laodelphax striatellus): D or higher

CCCN1C(=O)C(C(=O)Nc2ccc(F)cc2)=C(O)CC1c1ccc(C(F)(F)F)nc1 (centres unmarked) [1-32]
corrected mortality, rating of assessment (Plutella xylostella): D or higher
corrected mortality, rating of assessment (Laodelphax striatellus): D or higher

C#CCN1C(=O)C(C(=O)Nc2cc(C)on2)=C(O)CC1c1ccc(C(F)(F)F)nc1 (centres unmarked) [1-33]
corrected mortality, rating of assessment (Plutella xylostella): D or higher
corrected mortality, rating of assessment [1]: D or higher
corrected mortality, rating of assessment (Laodelphax striatellus): D or higher

C#CCN1C(=O)C(C(=O)Nc2ccn(C)n2)=C(O)CC1c1ccc(C(F)(F)F)nc1 (centres unmarked) [1-34]
corrected mortality, rating of assessment (Plutella xylostella): D or higher
corrected mortality, rating of assessment (Laodelphax striatellus): D or higher

C#CCN1C(=O)C(C(=O)Nc2ccnc(F)c2)=C(O)CC1c1ccc(C(F)(F)F)nc1 (centres unmarked) [1-35]
corrected mortality, rating of assessment (Plutella xylostella): D or higher
corrected mortality, rating of assessment (Laodelphax striatellus): D or higher

C#CCN1C(=O)C(C(=O)Nc2ccc(F)cn2)=C(O)CC1c1ccc(Cl)nc1 (centres unmarked) [1-36]
corrected mortality, rating of assessment (Plutella xylostella): D or higher
corrected mortality, rating of assessment [1]: D or higher
corrected mortality, rating of assessment (Laodelphax striatellus): D or higher

C#CCN1C(=O)C(C(=O)Nc2ccc(F)cn2)=C(O)CC1c1ccc(SC)cc1 (centres unmarked) [1-37]
corrected mortality, rating of assessment (Plutella xylostella): D or higher
corrected mortality, rating of assessment (Laodelphax striatellus): D or higher

C#CCN1C(=O)C(C(=O)Nc2ccc(F)cn2)=C(O)CC1c1ccc([S+](C)[O-])cc1 (centres unmarked) [1-38]
corrected mortality, rating of assessment (Plutella xylostella): D or higher
corrected mortality, rating of assessment (Laodelphax striatellus): D or higher

C#CCN1C(=O)C(C(=O)Nc2ccc(F)cn2)=C(O)CC1c1ccc(S(C)(=O)=O)cc1 (centres unmarked) [1-39]
corrected mortality, rating of assessment (Plutella xylostella): D or higher
corrected mortality, rating of assessment (Laodelphax striatellus): D or higher

C#CCN1C(=O)C(C(=O)Nc2ccc(SC)cc2)=C(O)CC1c1ccc(C(F)(F)F)nc1 (centres unmarked) [1-41]
corrected mortality, rating of assessment (Laodelphax striatellus): D or higher

C#CCN1C(=O)C(C(=O)Nc2ccc([S+](C)[O-])cc2)=C(O)CC1c1ccc(C(F)(F)F)nc1 (centres unmarked) [1-42]
corrected mortality, rating of assessment (Laodelphax striatellus): D or higher

C#CCN1C(=O)C(C(=O)Nc2ccc(S(C)(=O)=O)cc2)=C(O)CC1c1ccc(C(F)(F)F)nc1 (centres unmarked) [1-43]
corrected mortality, rating of assessment (Laodelphax striatellus): D or higher

C#CCN1C(=O)C(C(=O)Nc2ccc(F)cc2)=C(O)CC1c1ccc(SC)cc1 (centres unmarked) [1-44]
corrected mortality, rating of assessment (Plutella xylostella): D or higher

CN1C(=O)C(C(=O)Nc2ccc(SC(F)(F)F)cc2)=C(O)CC1c1ccc(C(F)(F)F)nc1 (centres unmarked) [1-49]
corrected mortality, rating of assessment (Plutella xylostella): D or higher

CN1C(=O)C(C(=O)Nc2ccc(NS(C)(=O)=O)cc2)=C(O)CC1c1ccc(C(F)(F)F)nc1 (centres unmarked) [1-60]
corrected mortality, rating of assessment (Plutella xylostella): D or higher

O=C1NCC(c2ccccc2C(F)(F)F)C(O)=C1C(=O)Nc1ccccc1F (centres unmarked) [3-3]
corrected mortality, rating of assessment (Plutella xylostella): D or higher

O=C1NCC(c2ccc(Cl)cc2)C(O)=C1C(=O)Nc1ccc(F)cc1 (centres unmarked) [3-10]
corrected mortality, rating of assessment (Plutella xylostella): D or higher

CN1CC(C)(c2ccc(C(F)(F)F)cc2)C(O)=C(C(=O)Nc2ccc(F)cc2)C1=O (centres unmarked) [3-11]
corrected mortality, rating of assessment (Plutella xylostella): D or higher

CN1CC(C)(c2ccc(C(F)(F)F)cc2)C(O)=C(C(=O)Nc2ccc(C(F)(F)F)cc2)C1=O (centres unmarked) [3-12]
corrected mortality, rating of assessment (Plutella xylostella): D or higher

CCC1(c2ccc(C(F)(F)F)cc2)CN(C)C(=O)C(C(=S)Nc2ccc(F)cn2)=C1O (centres unmarked) [3-23]
corrected mortality, rating of assessment (Plutella xylostella): D or higher
corrected mortality, rating of assessment (Laodelphax striatellus): D or higher

CCC1(c2ccc(C(F)(F)F)cc2)CNC(=O)C(C(=O)Nc2ccc(F)cc2)=C1O (centres unmarked) [3-24]
corrected mortality, rating of assessment (Plutella xylostella): D or higher
corrected mortality, rating of assessment (Laodelphax striatellus): D or higher

CCC1(c2ccc(C(F)(F)F)cc2)CN(C)C(=O)C(C(=O)Nc2ncc(F)cn2)=C1O (centres unmarked) [3-26]
corrected mortality, rating of assessment (Laodelphax striatellus): D or higher

CCC1(c2ccc(C(F)(F)F)cc2)CN(C)C(=O)C(C(=O)NN2CCOCC2)=C1O (centres unmarked) [3-27]
corrected mortality, rating of assessment (Laodelphax striatellus): D or higher

CCC1(c2ccc(C(F)(F)F)cc2)CN(C)C(=O)C(C(=O)Nc2cnc3ccccc3c2)=C1O (centres unmarked) [3-29]
corrected mortality, rating of assessment (Plutella xylostella): D or higher

CCC1(c2ccc(C(F)(F)F)cc2)CN(C)C(=O)C(C(=O)Nc2ccc(OC)cc2)=C1O (centres unmarked) [3-31]
corrected mortality, rating of assessment (Plutella xylostella): D or higher
corrected mortality, rating of assessment (Laodelphax striatellus): D or higher

CCC1(c2ccc(C(F)(F)F)cc2)CN(C)C(=O)C(C(=O)Nc2ccc(C)cc2)=C1O (centres unmarked) [3-34]
corrected mortality, rating of assessment (Plutella xylostella): D or higher

CCC1(c2ccc(C(F)(F)F)cc2)CN(C)C(=O)C(C(=O)Nc2ccc(S(C)(=O)=O)cc2)=C1O (centres unmarked) [3-35]
corrected mortality, rating of assessment (Plutella xylostella): D or higher
corrected mortality, rating of assessment (Laodelphax striatellus): D or higher

CCC1(c2ccc(C(F)(F)F)cc2)CN(C)C(=O)C(C(=O)Nc2ccc(C3CC3)cc2C)=C1O (centres unmarked) [3-38]
corrected mortality, rating of assessment (Plutella xylostella): D or higher

CN1C(=O)C(C(=O)Nc2ccc(C(F)(F)F)cc2)=C(O)CC1c1ccc(C(F)(F)F)cc1 (centres unmarked) [compound No. 1-1, 4-hydroxy-1-methyl-2-oxo-N, 6-bis(4-(trifluoromethyl)phenyl)-1,2,5,6-tetrahydropyridine-3-carboxamide]
corrected mortality, rating of assessment (Plutella xylostella): D or higher

CN1C(=O)C(C(=O)Nc2ccc(OC(F)(F)F)cc2)=C(O)CC1c1ccc(C(F)(F)F)cc1 (centres unmarked) [compound No. 1-2]
corrected mortality, rating of assessment (Plutella xylostella): D or higher

CN1C(=O)C(C(=O)NCc2ccc(F)cc2)=C(O)CC1c1ccc(C(F)(F)F)cc1 (centres unmarked) [compound No. 1-3]
corrected mortality, rating of assessment (Plutella xylostella): D or higher

CN1C(=O)C(C(=S)Nc2ccc(C(F)(F)F)cc2)=C(O)CC1c1ccc(C(F)(F)F)cc1 (centres unmarked) [compound No. 1-9, 4-hydroxy-1-methyl-2-oxo-N, 6-bis(4-(trifluoromethyl)phenyl)-1,2,5,6-tetrahydropyridine-3-carbothioamide]
corrected mortality, rating of assessment (Plutella xylostella): D or higher
corrected mortality, rating of assessment [1]: D or higher

O=C(Nc1ccc(F)cc1)C1=C(S)CC(c2ccc(C(F)(F)F)nc2)NC1=O (centres unmarked) [compound No. 1-28, N-(4-fluorophenyl)-4-mercapto-6-oxo-6′-(trifluoromethyl)-1,2,3,6-tetrahydro-[2,3′-bipyridine]-5-carboxamide]
corrected mortality, rating of assessment (Plutella xylostella): D or higher
corrected mortality, rating of assessment [1]: D or higher
corrected mortality, rating of assessment (Laodelphax striatellus): D or higher

CSC1=C(C(=O)Nc2ccc(F)cc2)C(=O)NC(c2ccc(C(F)(F)F)nc2)C1 (centres unmarked) [compound No. 1-29, N-(4-fluorophenyl)-4-(methylthio)-6-oxo-6′-(trifluoromethyl)-1,2,3,6-tetrahydro-[2,3′-bipyridine]-5-carboxamide]
corrected mortality, rating of assessment (Plutella xylostella): D or higher

C[S+]([O-])C1=C(C(=O)Nc2ccc(F)cc2)C(=O)NC(c2ccc(C(F)(F)F)nc2)C1 (centres unmarked) [compound No. 1-30, N-(4-fluorophenyl)-4-(methylsulfinyl)-6-oxo-6′-(trifluoromethyl)-1,2,3,6-tetrahydro-[2,3′-bipyridine]-5-carboxamide]
corrected mortality, rating of assessment (Plutella xylostella): D or higher
corrected mortality, rating of assessment [1]: D or higher
corrected mortality, rating of assessment (Laodelphax striatellus): D or higher

CN1CC(C)(c2ccc(C(F)(F)F)cc2)C(O)=C(C(=S)Nc2ccc(F)cc2)C1=O (centres unmarked) [compound No. 3-14, N-(4-fluorophenyl)-4-hydroxy-1,5-dimethyl-2-oxo-5-(4-(trifluoromethyl)phenyl)-1,2,5,6-tetrahydropyridine-3-carbothioamide]
inhibition at 10 µM (Dirofilaria immitis): ≥ 50%
